tested on: HCV replicon in 5-2Luc replicon cells; experiment: HCV Replicon Assay (luciferase); format: cell-based; settings: Hepatitis C virus; Table 4; assay not given
Method: Actively dividing 5-2Luc replicon cells were seeded at the density of 5000-7500 cells/well in the volume of 90 μl/well into 96 well plate(s). The cells were then incubated at 37° C. and 5% CO2 for 24 hours. The 5-2 cells are replicon cells licensed from Ralf Bartenschlager (Germany) and have a self-replicating RNA molecule in the Huh7 cell; the RNA contains HCV non-structural proteins that make the self-replication possible.
Various concentrations of compounds (in the volume of 10 μl) were added into each well 24 hours after seeding the cells. The cells were incubated for another 24 hours before luciferase assay.
After incubating the 5-2 Luc replicon cells with the compounds for 24 hours, media were aspirated from each well and Bright-Glo ([…]) luciferase assay reagents were added to each well according to the manufacturer's manual. Briefly, the Bright-Glo reagent was diluted with equal volume of PBS and an aliquote (100 μl) was added to each well. After incubating the plate at room temperature for 5 minutes, luciferase counts were taken using a luminometer.

Going from `O=C(NOC1CCCCO1)c1cc2ccc(F)cc2n2c(Cl)nnc12` (stereo not shown) [1-chloro-8-fluoro-N-(tetrahydro-2H-py-ran-2-yloxy)-[1,2,4]tri-azolo[4,3-a]quinoline-4-car-boxamide] to `O=C(NO)c1cc2ccc(F)cc2n2c(Cl)nnc12` [1-chloro-8-fluoro-N-hydroxy-[1,2,4]tri-azolo[4,3-a]quinoline-4-car-boxamide], the IC50 falls from over 10 µM to under 10 µM. The second is the more potent here.

`O=C(NO)c1cc2ccccc2nc1Cl` [2-chloro-N-hydroxyquinoline-3-car-boxamide] and `O=C(NO)c1cnc2ccccc2c1` [N-hydroxyquinoline-3-car-boxamide] cannot be ordered by IC50: over 10 µM for the first, over 10 µM for the second.

`ClC(Cl)c1nnc(-c2cc3nnnn3c3ccccc23)o1` [5-(5-(dichloromethyl)-1,3,4-oxa-diazol-2-yl)tetrazolo[1,5-a]quino-line] and `O=C(NO)c1cc2nnnn2c2ccccc12` [N-hydroxytetrazolo[1,5-a]quino-line-5-carboxamide] cannot be ordered by IC50: over 10 µM for the first, over 10 µM for the second.

`O=C(NOC1CCCCO1)c1cc2c(Cl)cccc2n2nnnc12` (stereo not shown) [6-chloro-N-(tetrahydro-2H-pyran-2-yl-oxy)tetrazolo[1,5-a]quinoline-4-car-boxamide] and `O=C(NOC1CCCCO1)c1cc2cccc(Cl)c2n2nnnc12` (stereo not shown) [9-chloro-N-(tetrahydro-2H-pyran-2-yl-oxy)tetrazolo[1,5-a]quinoline-4-car-boxamide] cannot be ordered by IC50: over 10 µM for the first, over 10 µM for the second.

`O=C(NO)c1cc2c(Cl)cccc2n2nnnc12` [6-chloro-N-hydroxytetrazolo[1,5-a]quino-line-4-carboxamide] and `O=C(NO)c1cc2cccc(Cl)c2n2nnnc12` [9-chloro-N-hydroxytetrazolo[1,5-a]quino-line-4-carboxamide] cannot be ordered by IC50: under 10 µM for the first, under 10 µM for the second.

First: COc1cc2cc(C(=O)NOC3CCCCO3)c3nnnn3c2cc1OC (stereo not shown) [7,8-dimethoxy-N-(tetrahydro-2H-py-ran-2-yloxy)tetrazolo[1,5-a]quino-line-4-carboxamide]
Second: COc1cc2cc(C(=O)NOC3CCCCO3)c3nnnn3c2cc1Cl (stereo not shown) [8-chloro-7-methoxy-N-(tetra-hydro-2H-pyran-2-yl-oxy)tetrazolo[1,5-a]quinoline-4-car-boxamide]
The IC50 of the first is lower: under 10 µM for the first, over 10 µM for the second.

`O=C(NOC1CCCCO1)c1cc2cc(Cl)cc(Cl)c2n2cnnc12` (stereo not shown) [7,9-dichloro-N-(tetrahydro-2H-py-ran-2-yloxy)-[1,2,4]tri-azolo[4,3-a]quinoline-4-car-boxamide] and `O=C(NOC1CCCCO1)c1cc2cc(Cl)cc(Cl)c2n2nnnc12` (stereo not shown) [7,9-dichloro-N-(tetrahydro-2H-py-ran-2-yloxy)tetrazolo[1,5-a]quino-line-4-carboxamide] cannot be ordered by IC50: over 10 µM for the first, over 10 µM for the second.

`O=C(NO)c1cc2cc(Cl)cc(Cl)c2n2nnnc12` [7,9-dichloro-N-hy-droxytetrazolo[1,5-a]quinoline-4-car-boxamide] and `O=C(NO)c1cc2cc(Cl)cc(Cl)c2n2cnnc12` [7,9-dichloro-N-hydroxy-[1,2,4]tri-azolo[4,3-a]quinoline-4-car-boxamide] cannot be ordered by IC50: under 10 µM for the first, under 10 µM for the second.

`O=C(O)c1cc2cc(Cl)cc(Cl)c2n2cnnc12` [7,9-dichloro-[1,2,4]triazolo[4,3-a]quino-line-4-carboxylic acid] and `CCOC(=O)c1cc2cc(Cl)cc(Cl)c2n2cnnc12` [ethyl 7,9-dichloro-[1,2,4]tri-azolo[4,3-a]quinoline-4-car-boxylate] cannot be ordered by IC50: over 10 µM for the first, over 10 µM for the second.

`Cc1cc(C)c2c(c1)cc(C(=O)NOC1CCCCO1)c1nnnn12` (stereo not shown) [7,9-dimethyl-N-(tetrahydro-2H-py-ran-2-yloxy)tetrazolo[1,5-a]quino-line-4-carboxamide] and `Cc1cccc2cc(C(=O)NOC3CCCCO3)c3nnnn3c12` (stereo not shown) [9-methyl-N-(tetrahydro-2H-pyran-2-yl-oxy)tetrazolo[1,5-a]quinoline-4-car-boxamide] cannot be ordered by IC50: over 10 µM for the first, over 10 µM for the second.

`O=C(NOC1CCCCO1)c1cc2cc(Cl)ccc2n2cnnc12` (stereo not shown) [7-chloro-N-(tetrahydro-2H-pyran-2-yl-oxy)-[1,2,4]triazolo[4,3-a]quino-line-4-carboxamide] and `O=C(NOC1CCCCO1)c1cc2cc(Cl)ccc2n2nnnc12` (stereo not shown) [7-chloro-N-(tetrahydro-2H-pyran-2-yl-oxy)tetrazolo[1,5-a]quinoline-4-car-boxamide] cannot be ordered by IC50: over 10 µM for the first, over 10 µM for the second.

Compared with `Cc1nnc2c(C(=O)NO)cc3cc(Cl)ccc3n12` [7-chloro-N-hydroxy-1-methyl-[1,2,4]tri-azolo[4,3-a]quinoline-4-car-boxamide], `CCOC(=O)c1cc2cc(Cl)ccc2n2c(C)nnc12` [ethyl 7-chloro-1-methyl-[1,2,4]tri-azolo[4,3-a]quinoline-4-car-boxylate] is higher in IC50: under 10 µM for the first, over 10 µM for the second.

First: O=C(NO)c1cc2cc(Cl)ccc2n2cnnc12 [7-chloro-N-hydroxy-[1,2,4]tri-azolo[4,3-a]quinoline-4-car-boxamide]
Second: CCOC(=O)c1cc2cc(Cl)ccc2n2cnnc12 [ethyl 7-chloro-[1,2,4]tri-azolo[4,3-a]quinoline-4-car-boxylate]
The IC50 of the first is lower: under 10 µM for the first, over 10 µM for the second.

`O=C(NO)c1cc2cc(Cl)ccc2n2nnnc12` [7-chloro-N-hydroxytetrazolo[1,5-a]quino-line-4-carboxamide] and `O=C(NO)c1cc2ccc(Cl)cc2n2nnnc12` [8-chloro-N-hydroxytetrazolo[1,5-a]quino-line-4-carboxamide] cannot be ordered by IC50: under 10 µM for the first, under 10 µM for the second.

`O=C(NO)c1cc2cc(F)ccc2n2nnnc12` [7-fluoro-N-hydroxytetrazolo[1,5-a]quino-line-4-carboxamide] and `O=C(NO)c1cc2ccccc2n2nnnc12` [N-hydroxytetrazolo[1,5-a]quino-line-4-carboxamide] cannot be ordered by IC50: under 10 µM for the first, under 10 µM for the second.

`COc1cc2cc(C(=O)NO)c3nnnn3c2cc1Cl` [8-chloro-N-hydroxy-7-meth-oxytetrazolo[1,5-a]quino-line-4-carboxamide] and `COc1cc2cc(C(=O)NO)c3nnnn3c2cc1OC` [N-hydroxy-7,8-di-methoxytetrazolo[1,5-a]quino-line-4-carboxamide] cannot be ordered by IC50: under 10 µM for the first, under 10 µM for the second.

`CN(O)C(=O)c1cc2ccc(Cl)cc2n2nnnc12` [8-chloro-N-hydroxy-N-meth-yltetrazolo[1,5-a]quinoline-4-car-boxamide] and `COc1ccc2cc(C(=O)NO)c3nnnn3c2c1` [N-hydroxy-8-meth-oxytetrazolo[1,5-a]quino-line-4-carboxamide] cannot be ordered by IC50: over 10 µM for the first, over 10 µM for the second.

`O=C(O)c1cc2ccc(F)cc2n2cnnc12` [8-fluoro-[1,2,4]triazolo[4,3-a]quino-line-4-carboxylic acid] and `COC(=O)c1cc2ccc(F)cc2n2cnnc12` [methyl 8-fluoro-[1,2,4]tri-azolo[4,3-a]quinoline-4-car-boxylate] cannot be ordered by IC50: over 10 µM for the first, over 10 µM for the second.

`COc1ccc2cc(C(=O)NOC3CCCCO3)c3nnnn3c2c1` (stereo not shown) [8-methoxy-N-(tetrahydro-2H-py-ran-2-yloxy)tetrazolo[1,5-a]quino-line-4-carboxamide] and `O=C(NOC1CCCCO1)c1cc2ccc(OC(F)(F)F)cc2n2nnnc12` (stereo not shown) [N-(tetrahydro-2H-pyran-2-yloxy)-8-(tri-fluoromethoxy)tetrazolo[1,5-a]quino-line-4-carboxamide] cannot be ordered by IC50: over 10 µM for the first, over 10 µM for the second.

`O=C(NOC1CCCCO1)c1cc2ccccc2n2nnnc12` (stereo not shown) [N-(tetrahydro-2H-pyran-2-yl-oxy)tetrazolo[1,5-a]quinoline-4-car-boxamide] and `O=C(NOC1CCCCO1)c1cc2nnnn2c2ccccc12` (stereo not shown) [N-(tetrahydro-2H-pyran-2-yl-oxy)tetrazolo[1,5-a]quinoline-5-car-boxamide] cannot be ordered by IC50: over 10 µM for the first, over 10 µM for the second.

`Cc1cc(C)c2c(c1)cc(C(=O)NO)c1nnnn12` [N-hydroxy-7,9-di-methyltetrazolo[1,5-a]quino-line-4-carboxamide] and `Cc1cccc2cc(C(=O)NO)c3nnnn3c12` [N-hydroxy-9-methyltetrazolo[1,5-a]quino-line-4-carboxamide] cannot be ordered by IC50: under 10 µM for the first, under 10 µM for the second.

`O=C(NO)c1cc2cc3c(cc2n2nnnc12)OCCO3` [N-hydroxy-8,9-di-hydro[1,4]dioxino[2,3-g]tetra-zolo[1,5-a]quinoline-4-car-boxamide] and `O=C(NO)c1cc2ccc(C(F)(F)F)cc2n2nnnc12` [N-hydroxy-8-(tri-fluoromethyl)tetrazolo[1,5-a]quino-line-4-carboxamide] cannot be ordered by IC50: under 10 µM for the first, under 10 µM for the second.

Compared with `O=C(NO)c1cc2ccc(OC(F)(F)F)cc2n2nnnc12` [N-hydroxy-8-(tri-fluoromethoxy)tetrazolo[1,5-a]quino-line-4-carboxamide], `COC(=O)c1cc2nnnn2c2ccccc12` [methyl tetrazolo[1,5-a]quinoline-5-car-boxylate] is higher in IC50: under 10 µM for the first, over 10 µM for the second.

— patent US7358259B2, “HCV inhibitors and methods of using them” (Rigel Pharmaceuticals, Inc., priority 2003, dated 2008)
